From patent US20020086814A1 (priority 2000, published 2002)

Experiments:
Vero cells [1] = type: cell-based
Vero cells [2] = type: cell-based; remark: listed apart in the source

With chlorin e6 [free Ce6] the “LD50 of photodynamic cell killing, expressed in molar concentration of Ce6” value (Vero cells [1]) was 1.2 nmol/mL and the “Cell-associated Ce6-specific fluorescence” value (Vero cells [2]) was “no detectable Ce6-specific fluorescence”.
